Results: the supplement of paper PMC10307832

Legend:
Assay in all cases: relative viability (nuclei count vs DMSO), 5 days (fraction); higher = more cells survive
NCI-H2023 = tested on: NCI-H2023
In short: (§1)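 Lung cancer cell lines in 1536-well plates were dosed by pin tool the day after seeding, either with one drug alone or with a fixed anchor-drug dose plus five library-drug doses (not always all listed) in √10 steps. After 5 days, cells were fixed and their nuclei stained in one step (final 0.05% Triton X-100, 1% formaldehyde, 1 ug/ml Hoechst), then counted on 4× images. Relative viability is the nuclei count in treated wells divided by that in vehicle wells. Values are medians of duplicate plates.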

NCI-H2009 = tested on: NCI-H2009
In short: as §1

SK-LU-1 = tested on: SK-LU-1
In short: as §1

NCI-H661 = tested on: NCI-H661
In short: as §1

H3255 = tested on: H3255
In short: as §1

LCLC-97TM1 = tested on: LCLC-97TM1
In short: as §1

EMC-BAC-2 = tested on: EMC-BAC-2
In short: as §1

LXF-289 = tested on: LXF-289
In short: as §1

NCI-H727 = tested on: NCI-H727
In short: as §1

NCI-H1993 = tested on: NCI-H1993
In short: as §1

NCI-H2126 = tested on: NCI-H2126
In short: as §1

NCI-H647 = tested on: NCI-H647
In short: as §1

HOP-62 = tested on: HOP-62
In short: as §1

EPLC-272H = tested on: EPLC-272H
In short: as §1

NCI-H2347 = tested on: NCI-H2347
In short: as §1

NCI-H1915 = tested on: NCI-H1915
In short: as §1

PC-14 = tested on: PC-14
In short: as §1

SW 1573 = tested on: SW 1573
In short: as §1

NCI-H2085 = tested on: NCI-H2085
In short: as §1

NCI-H1734 = tested on: NCI-H1734
In short: as §1

NCI-H322M = tested on: NCI-H322M
In short: as §1

SMILES: COc1nc(C)cnc1NS(=O)(=O)c1cccnc1-c1ccc(-c2nnco2)cc1 [Zibotentan] + CC(=O)c1c(C)c2cnc(Nc3ccc(N4CCNCC4)cn3)nc2n(C2CCCC2)c1=O [Palbociclib] (partner 0.5 µM)
- relative viability (NCI-H2023; first compound 0.08 µM): 0.409
- relative viability (NCI-H2023; first compound 0.8 µM): 0.355
- relative viability (NCI-H2023; first compound 2.53 µM): 0.356
- relative viability (NCI-H2009; first compound 0.08 µM): 0.188
- relative viability (NCI-H2009; first compound 0.253 µM): 0.169
- relative viability (NCI-H2009; first compound 0.8 µM): 0.205
- relative viability (NCI-H2009; first compound 2.53 µM): 0.212
- relative viability (SK-LU-1; first compound 0.08 µM): 0.416
- relative viability (SK-LU-1; first compound 0.253 µM): 0.389
- relative viability (SK-LU-1; first compound 0.8 µM): 0.367
- relative viability (SK-LU-1; first compound 2.53 µM): 0.367
- relative viability (NCI-H661; first compound 0.08 µM): 0.421
- relative viability (NCI-H661; first compound 0.253 µM): 0.384
- relative viability (NCI-H661; first compound 0.8 µM): 0.455
- relative viability (NCI-H661; first compound 2.53 µM): 0.396
- relative viability (H3255; first compound 0.08 µM): 0.317
- relative viability (H3255; first compound 0.253 µM): 0.318
- relative viability (H3255; first compound 0.8 µM): 0.355
- relative viability (H3255; first compound 2.53 µM): 0.283
- relative viability (LCLC-97TM1; first compound 0.08 µM): 0.236
- relative viability (LCLC-97TM1; first compound 0.253 µM): 0.247
- relative viability (LCLC-97TM1; first compound 0.8 µM): 0.228
- relative viability (LCLC-97TM1; first compound 2.53 µM): 0.253
- relative viability (EMC-BAC-2; first compound 0.08 µM): 0.532
- relative viability (EMC-BAC-2; first compound 0.8 µM): 0.546
- relative viability (EMC-BAC-2; first compound 2.53 µM): 0.503
- relative viability (LXF-289; first compound 0.08 µM): 0.577
- relative viability (LXF-289; first compound 0.253 µM): 0.55
- relative viability (LXF-289; first compound 0.8 µM): 0.592
- relative viability (LXF-289; first compound 2.53 µM): 0.61
- relative viability (NCI-H727; first compound 0.08 µM): 0.623
- relative viability (NCI-H727; first compound 0.253 µM): 0.667
- relative viability (NCI-H727; first compound 0.8 µM): 0.73
- relative viability (NCI-H727; first compound 2.53 µM): 0.658
- relative viability (NCI-H1993; first compound 0.08 µM): 0.661
- relative viability (NCI-H1993; first compound 0.253 µM): 0.712
- relative viability (NCI-H1993; first compound 0.8 µM): 0.537
- relative viability (NCI-H1993; first compound 2.53 µM): 0.662
- relative viability (NCI-H2126; first compound 0.08 µM): 0.316
- relative viability (NCI-H2126; first compound 0.253 µM): 0.338
- relative viability (NCI-H2126; first compound 0.8 µM): 0.34
- relative viability (NCI-H2126; first compound 2.53 µM): 0.362
- relative viability (NCI-H647; first compound 0.08 µM): 0.471
- relative viability (NCI-H647; first compound 0.253 µM): 0.358
- relative viability (NCI-H647; first compound 0.8 µM): 0.361
- relative viability (NCI-H647; first compound 2.53 µM): 0.469
- relative viability (HOP-62; first compound 0.08 µM): 0.47
- relative viability (HOP-62; first compound 0.253 µM): 0.431
- relative viability (HOP-62; first compound 0.8 µM): 0.518
- relative viability (HOP-62; first compound 2.53 µM): 0.451
- relative viability (EPLC-272H; first compound 0.08 µM): 0.348
- relative viability (EPLC-272H; first compound 0.253 µM): 0.246
- relative viability (EPLC-272H; first compound 0.8 µM): 0.366
- relative viability (EPLC-272H; first compound 2.53 µM): 0.33
- relative viability (NCI-H2347; first compound 0.08 µM): 0.407
- relative viability (NCI-H2347; first compound 0.253 µM): 0.445
- relative viability (NCI-H2347; first compound 0.8 µM): 0.439
- relative viability (NCI-H2347; first compound 2.53 µM): 0.454
- relative viability (NCI-H1915; first compound 0.08 µM): 0.586
- relative viability (NCI-H1915; first compound 0.253 µM): 0.499
- relative viability (NCI-H1915; first compound 0.8 µM): 0.546
- relative viability (NCI-H1915; first compound 2.53 µM): 0.569
- relative viability (PC-14; first compound 0.08 µM): 0.68
- relative viability (PC-14; first compound 0.253 µM): 0.459
- relative viability (PC-14; first compound 0.8 µM): 0.607
- relative viability (PC-14; first compound 2.53 µM): 0.519
- relative viability (SW 1573; first compound 0.08 µM): 0.421
- relative viability (SW 1573; first compound 0.8 µM): 0.385
- relative viability (SW 1573; first compound 2.53 µM): 0.363
- relative viability (NCI-H2085; first compound 0.08 µM): 0.47
- relative viability (NCI-H2085; first compound 0.253 µM): 0.466
- relative viability (NCI-H2085; first compound 0.8 µM): 0.496
- relative viability (NCI-H2085; first compound 2.53 µM): 0.47
- relative viability (NCI-H1734; first compound 0.08 µM): 0.337
- relative viability (NCI-H1734; first compound 0.253 µM): 0.32
- relative viability (NCI-H1734; first compound 0.8 µM): 0.374
- relative viability (NCI-H1734; first compound 2.53 µM): 0.407
- relative viability (NCI-H322M; first compound 0.08 µM): 0.465
- relative viability (NCI-H322M; first compound 0.253 µM): 0.408
- relative viability (NCI-H322M; first compound 0.8 µM): 0.49
- relative viability (NCI-H322M; first compound 2.53 µM): 0.521

SMILES: COc1nc(C)cnc1NS(=O)(=O)c1cccnc1-c1ccc(-c2nnco2)cc1 [Zibotentan] + O=C(CCCCCCC(=O)Nc1ccccc1)NO [Vorinostat] (partner 1 µM)
- relative viability (NCI-H2023; first compound 0.08 µM): 0.849
- relative viability (NCI-H2023; first compound 0.8 µM): 0.562
- relative viability (NCI-H2023; first compound 2.53 µM): 0.846
- relative viability (NCI-H2009; first compound 0.08 µM): 0.705
- relative viability (NCI-H2009; first compound 0.253 µM): 0.705
- relative viability (NCI-H2009; first compound 0.8 µM): 0.72
- relative viability (NCI-H2009; first compound 2.53 µM): 0.893
- relative viability (SK-LU-1; first compound 0.08 µM): 0.697
- relative viability (SK-LU-1; first compound 0.253 µM): 0.726
- relative viability (SK-LU-1; first compound 0.8 µM): 0.819
- relative viability (SK-LU-1; first compound 2.53 µM): 0.83
- relative viability (NCI-H661; first compound 0.08 µM): 0.823
- relative viability (NCI-H661; first compound 0.253 µM): 0.766
- relative viability (NCI-H661; first compound 0.8 µM): 0.827
- relative viability (NCI-H661; first compound 2.53 µM): 0.844
- relative viability (H3255; first compound 0.08 µM): 0.926
- relative viability (H3255; first compound 0.253 µM): 0.785
- relative viability (H3255; first compound 0.8 µM): 0.877
- relative viability (H3255; first compound 2.53 µM): 0.778
- relative viability (LCLC-97TM1; first compound 0.08 µM): 0.822
- relative viability (LCLC-97TM1; first compound 0.253 µM): 0.831
- relative viability (LCLC-97TM1; first compound 0.8 µM): 0.697
- relative viability (LCLC-97TM1; first compound 2.53 µM): 0.755
- relative viability (EMC-BAC-2; first compound 0.08 µM): 0.907
- relative viability (EMC-BAC-2; first compound 0.8 µM): 0.546
- relative viability (EMC-BAC-2; first compound 2.53 µM): 0.514
- relative viability (LXF-289; first compound 0.08 µM): 0.769
- relative viability (LXF-289; first compound 0.253 µM): 0.713
- relative viability (LXF-289; first compound 0.8 µM): 0.766
- relative viability (LXF-289; first compound 2.53 µM): 0.746
- relative viability (NCI-H727; first compound 0.08 µM): 1.19
- relative viability (NCI-H727; first compound 0.253 µM): 1.24
- relative viability (NCI-H727; first compound 0.8 µM): 1.07
- relative viability (NCI-H727; first compound 2.53 µM): 1.19
- relative viability (NCI-H1993; first compound 0.08 µM): 1.05
- relative viability (NCI-H1993; first compound 0.253 µM): 0.764
- relative viability (NCI-H1993; first compound 0.8 µM): 0.826
- relative viability (NCI-H1993; first compound 2.53 µM): 0.988
- relative viability (NCI-H2126; first compound 0.08 µM): 0.844
- relative viability (NCI-H2126; first compound 0.253 µM): 0.765
- relative viability (NCI-H2126; first compound 0.8 µM): 0.651
- relative viability (NCI-H2126; first compound 2.53 µM): 0.831
- relative viability (NCI-H647; first compound 0.08 µM): 0.649
- relative viability (NCI-H647; first compound 0.253 µM): 0.381
- relative viability (NCI-H647; first compound 0.8 µM): 0.718
- relative viability (NCI-H647; first compound 2.53 µM): 0.698
- relative viability (HOP-62; first compound 0.08 µM): 0.676
- relative viability (HOP-62; first compound 0.253 µM): 0.57
- relative viability (HOP-62; first compound 0.8 µM): 0.735
- relative viability (HOP-62; first compound 2.53 µM): 0.623
- relative viability (EPLC-272H; first compound 0.253 µM): 0.506
- relative viability (EPLC-272H; first compound 0.8 µM): 0.667
- relative viability (EPLC-272H; first compound 2.53 µM): 0.501
- relative viability (NCI-H2347; first compound 0.08 µM): 0.622
- relative viability (NCI-H2347; first compound 0.253 µM): 0.566
- relative viability (NCI-H2347; first compound 0.8 µM): 0.658
- relative viability (NCI-H2347; first compound 2.53 µM): 0.744
- relative viability (NCI-H1915; first compound 0.08 µM): 0.679
- relative viability (NCI-H1915; first compound 0.253 µM): 0.53
- relative viability (NCI-H1915; first compound 0.8 µM): 0.548
- relative viability (NCI-H1915; first compound 2.53 µM): 0.572
- relative viability (PC-14; first compound 0.08 µM): 0.937
- relative viability (PC-14; first compound 0.253 µM): 0.421
- relative viability (PC-14; first compound 0.8 µM): 0.81
- relative viability (PC-14; first compound 2.53 µM): 0.77
- relative viability (SW 1573; first compound 0.08 µM): 0.76
- relative viability (SW 1573; first compound 0.8 µM): 0.957
- relative viability (SW 1573; first compound 2.53 µM): 0.885
- relative viability (NCI-H2085; first compound 0.08 µM): 0.762
- relative viability (NCI-H2085; first compound 0.253 µM): 0.766
- relative viability (NCI-H2085; first compound 0.8 µM): 0.769
- relative viability (NCI-H2085; first compound 2.53 µM): 0.824
- relative viability (NCI-H1734; first compound 0.08 µM): 0.842
- relative viability (NCI-H1734; first compound 0.253 µM): 0.705
- relative viability (NCI-H1734; first compound 0.8 µM): 0.864
- relative viability (NCI-H1734; first compound 2.53 µM): 0.912
- relative viability (NCI-H322M; first compound 0.08 µM): 1.03
- relative viability (NCI-H322M; first compound 0.253 µM): 0.748
- relative viability (NCI-H322M; first compound 0.8 µM): 0.895
- relative viability (NCI-H322M; first compound 2.53 µM): 0.93
